Experimental data: the supplement of paper PMC11451515

Tests used:
Settings in all cases: 48 h
[1] = test system: P12-Ichikawa; test: AUC of viability dose-response curve (% viability x log10 dose units); higher = less sensitive
How it was run: (§1)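 Over 48 h at 37°C, leukemia cells in 1536-well plates (500 or 1000 cells/well), adapted to each medium, received library compounds in DMSO at 11 threefold doses from 47 μM to 0.79 nM. CellTiter-Glo One luminescence, normalised per plate to DMSO and cell-free wells, was fitted by a four-parameter log-logistic function of log10 dose. The area under the curve was then integrated by trapezoidal rule, after scaling curves above full viability and removing those that failed quality control.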

[2] = test system: NOMO1; test: as above
How it was run: as §1

[3] = test system: SEM cells; test: cell viability relative to DMSO control; higher = less cytotoxic
How it was run: (§2)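 Three leukemia lines were tested: NOMO1 and SEM at 500 cells/well and P12-Ichikawa at 1000 cells/well. Each was adapted for at least four passages in each medium and seeded in 5 μl in 1536-well plates, and library compounds in DMSO were pin-dosed from 47 μM to 0.79 nM in 11 threefold steps. After 48 h at 37°C, CellTiter-Glo One luminescence was read. Viability is a percentage relative to DMSO wells on each plate, with cell-free wells as background.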

[4] = test system: P12-Ichikawa; test: as above
How it was run: as §2

[5] = test system: NOMO1; test: as above
How it was run: as §2

[6] = test system: SEM cells; test: AUC of viability dose-response curve (% viability x log10 dose units); higher = less sensitive
How it was run: as §1

Nc1ccc(C(=O)Nc2cccc(-c3nc(N4CCOCC4)c4oc5ncccc5c4n3)c2)cn1
AUC of viability dose-response curve
Settings | HPLM + 10% dialyzed FBS | RPMI 5 mM glucose + 10% FBS | RPMI 5 mM glucose + 10% dialyzed FBS
[1] | 450 | 428 | 430
[2] | 410 | 442 | 403

cell viability [%]
Settings | [3] | [4] | [5]
HPLM + 10% dialyzed FBS, 0.000781 µM | 119 | 125 | 122
HPLM + 10% dialyzed FBS, 0.00234 µM | 120 | 122 | 118
HPLM + 10% dialyzed FBS, 0.00702 µM | 130 | 125 | 135
HPLM + 10% dialyzed FBS, 0.0211 µM | 113 | 121 | 121
HPLM + 10% dialyzed FBS, 0.0632 µM | 115 | 120 | 115
HPLM + 10% dialyzed FBS, 0.19 µM | 107 | 127 | 122
HPLM + 10% dialyzed FBS, 0.569 µM | 96.3 | 120 | 128
HPLM + 10% dialyzed FBS, 1.71 µM | 116 | 124 | 98.8
HPLM + 10% dialyzed FBS, 5.12 µM | 90.1 | 97.3 | 67.7
HPLM + 10% dialyzed FBS, 15.4 µM | 85.8 | 100 | 74.5
HPLM + 10% dialyzed FBS, 46.1 µM | 4.82 | 87.8 | 49.3
RPMI 5 mM glucose + 10% FBS, 0.000781 µM | 88 | 118 | 118
RPMI 5 mM glucose + 10% FBS, 0.00234 µM | 80.1 | 119 | 123
RPMI 5 mM glucose + 10% FBS, 0.00702 µM | 71.8 | 115 | 129
RPMI 5 mM glucose + 10% FBS, 0.0211 µM | 75.2 | 114 | 104
RPMI 5 mM glucose + 10% FBS, 0.0632 µM | 83.9 | 124 | 118
RPMI 5 mM glucose + 10% FBS, 0.19 µM | 68.1 | 112 | 110
RPMI 5 mM glucose + 10% FBS, 0.569 µM | 71.7 | 103 | 115
RPMI 5 mM glucose + 10% FBS, 1.71 µM | 77.4 | 101 | 108
RPMI 5 mM glucose + 10% FBS, 5.12 µM | 57.9 | 81.5 | 82.8
RPMI 5 mM glucose + 10% FBS, 15.4 µM | 38.9 | 94.7 | 83.4
RPMI 5 mM glucose + 10% FBS, 46.1 µM | 3.46 | 77.2 | 91
RPMI 5 mM glucose + 10% dialyzed FBS, 0.000781 µM | 129 | – | 115
RPMI 5 mM glucose + 10% dialyzed FBS, 0.00234 µM | 119 | – | 124
RPMI 5 mM glucose + 10% dialyzed FBS, 0.00702 µM | 116 | – | 107
RPMI 5 mM glucose + 10% dialyzed FBS, 0.0211 µM | 111 | – | 113
RPMI 5 mM glucose + 10% dialyzed FBS, 0.0632 µM | 114 | – | 110
RPMI 5 mM glucose + 10% dialyzed FBS, 0.19 µM | 102 | – | 119
RPMI 5 mM glucose + 10% dialyzed FBS, 0.569 µM | 104 | – | 91
RPMI 5 mM glucose + 10% dialyzed FBS, 1.71 µM | 107 | – | 84.9
RPMI 5 mM glucose + 10% dialyzed FBS, 5.12 µM | 79.1 | – | 65
RPMI 5 mM glucose + 10% dialyzed FBS, 15.4 µM | 64 | – | 73.7
RPMI 5 mM glucose + 10% dialyzed FBS, 46.1 µM | 5.84 | – | 61.5

Cc1c(CN2CCN([S+](C)(=O)[O-])CC2)sc2c(N3CCOCC3)nc(-c3cnc(N)nc3)nc12
AUC of viability dose-response curve
Settings | [1] | [2] | [6]
HPLM + 10% dialyzed FBS | 371 | 305 | 287
RPMI 5 mM glucose + 10% FBS | 336 | 350 | 304
RPMI 5 mM glucose + 10% dialyzed FBS | 332 | 316 | 328

[3], RPMI 5 mM glucose + 10% dialyzed FBS
Settings | cell viability [%]
0.000781 µM | 118
0.00234 µM | 134
0.00702 µM | 122
0.0211 µM | 105
0.0632 µM | 87.3
0.19 µM | 86.6
0.569 µM | 98.8
1.71 µM | 57.9
5.12 µM | 50.8
15.4 µM | 50.6
46.1 µM | 44
